Laboratory results taken from patent US10597388B2, “Pyridazinone herbicides” (FMC CORPORATION, priority 2014, dated 2020).

What was measured:
Test in all cases: Test C greenhouse herbicide test, pre- and postemergence
Assay type in all cases: in vivo
[1] = test system: blackgrass (Alopecurus myosuroides)
Outline: (§1)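 Percent-control ratings (0 none, 100 complete) came from visual comparison with controls held alongside in the greenhouse for 13–15 d. Treatments covered soil application at sowing and foliar application to young plants 2–18 cm tall.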

[2] = test system: soybean (Glycine max)
Outline: as §1

[3] = test system: lambsquarters (Chenopodium album)
Outline: as §1

[4] = test system: wheat (winter wheat, Triticum aestivum)
Outline: as §1

[5] = test system: crabgrass, large (large crabgrass, Digitaria sanguinalis)
Outline: as §1

[6] = test system: nutsedge, yellow (yellow nutsedge, Cyperus esculentus); settings: Preemergence; for Plant response rating, Nutsedge, Yellow: scale 0 to 100, 0 is no effect, 100 is complete control
Outline: as §1

[7] = test system: velvetleaf (Abutilon theophrasti)
Outline: as §1

[8] = test system: barnyardgrass (Echinochloa crus-galli)
Outline: as §1

[9] = test system: ryegrass, Italian (Italian ryegrass, Lolium multiflorum)
Outline: as §1

[10] = test system: pigweed (Amaranthus retroflexus)
Outline: as §1

[11] = test system: morningglory (Ipomoea coccinea)
Outline: as §1

[12] = test system: waterhemp (common waterhemp, Amaranthus rudis)
Outline: as §1

[13] = test system: ragweed (common ragweed, Ambrosia elatior)
Outline: as §1

[14] = test system: johnsongrass (Sorghum halepense)
Outline: as §1

[15] = test system: corn (Zea mays)
Outline: as §1

[16] = Postemergence, 31 g ai/ha, 0 to 100 scale (0 no effect, 100 complete control)
[17] = Postemergence, 125 g ai/ha, scale 0 to 100, 0 is no effect, 100 is complete control
[18] = Postemergence, 250 g ai/ha, scale 0 to 100, 0 no effect, 100 complete control, 13 to 15 d
[19] = Preemergence, 31 g ai/ha, scale 0 to 100, 0 is no effect, 100 is complete control
[20] = Preemergence, 62 g ai/ha, scale 0 to 100, 0 is no effect, 100 is complete control
[21] = Preemergence, 125 g ai/ha, scale 0 to 100, 0 is no effect, 100 is complete control
[22] = Preemergence, 250 g ai/ha, scale 0 to 100, 0 no effect, 100 complete control
[23] = postemergence, 62 g ai/ha, scale 0 to 100, 0 no effect, 100 complete control

CCc1oc2ccc(C)cc2c1-c1c(O)c(C)nn(C)c1=O [Compound 10, 4-(2-ethyl-5-methyl-3-benzofuranyl)-5-hydroxy-2,6-dimethyl-3(2H)-pyridazinone]
35: Barnyardgrass plant response rating [8, 16]
55: Plant response rating, Ryegrass, Italian [9, 18] | Pigweed plant response rating [10, 16] | Morningglory plant response rating [11, 16] | Morningglory plant response rating [11, 22]
15: Plant response rating, Blackgrass [1, 18]
30: Lambsquarters plant response rating [3, 22] | Crabgrass, Large plant response rating [5, 23] | Pigweed plant response rating [10, 22] | Ragweed plant response rating [13, 23]
70: Plant response rating, Velvetleaf [7, 18] | Plant response rating, Pigweed [10, 17] | Plant response rating, Ragweed [13, 17]
40: Velvetleaf plant response rating [7, 16] | Plant response rating, Velvetleaf [7, 17] | Waterhemp plant response rating [12, 16]
45: Velvetleaf plant response rating [7, 23] | Waterhemp plant response rating [12, 23]
20: Plant response rating, Ryegrass, Italian [9, 17]
60: Pigweed plant response rating [10, 23]
95: Plant response rating, Pigweed [10, 18]
75: Plant response rating, Crabgrass, Large [5, 18]
100: Plant response rating, Morningglory [11, 17] | Plant response rating, Morningglory [11, 18] | Plant response rating, Waterhemp [12, 21]
50: Lambsquarters plant response rating [3, 16] | Velvetleaf plant response rating [7, 22] | Plant response rating, Waterhemp [12, 17]
10: Plant response rating, Blackgrass [1, 17] | Crabgrass, Large plant response rating [5, 16] | Plant response rating, Velvetleaf [7, 21] | Plant response rating, Pigweed [10, 21]
0: Blackgrass plant response rating [1, 16] | Plant response rating, Blackgrass [1, 19] | Plant response rating, Blackgrass [1, 20] | Plant response rating, Blackgrass [1, 21] | Blackgrass plant response rating [1, 22] | Blackgrass plant response rating [1, 23] | Soybean plant response rating [2, 16] | Plant response rating, Soybean [2, 17] | Plant response rating, Soybean [2, 18] | Plant response rating, Soybean [2, 20] | Plant response rating, Soybean [2, 21] | Soybean plant response rating [2, 22] | Soybean plant response rating [2, 23] | Plant response rating, Lambsquarters [3, 19] | Plant response rating, Lambsquarters [3, 20] | Wheat plant response rating [4, 16] | Plant response rating, Wheat [4, 17] | Plant response rating, Wheat [4, 18] | Plant response rating, Wheat [4, 20] | Plant response rating, Wheat [4, 21] | Wheat plant response rating [4, 22] | Wheat plant response rating [4, 23] | Plant response rating, Crabgrass, Large [5, 19] | Plant response rating, Crabgrass, Large [5, 20] | Plant response rating, Crabgrass, Large [5, 21] | Crabgrass, Large plant response rating [5, 22] | Plant response rating, Nutsedge, Yellow ([6]; 31 g ai/ha) | Plant response rating, Nutsedge, Yellow ([6]; 62 g ai/ha) | Plant response rating, Nutsedge, Yellow ([6]; 125 g ai/ha) | Nutsedge, Yellow plant response rating ([6]; 250 g ai/ha, scale 0 to 100, 0 no effect, 100 complete control) | Plant response rating, Velvetleaf [7, 20] | Plant response rating, Barnyardgrass [8, 19] | Plant response rating, Ryegrass, Italian [9, 19] | Plant response rating, Ryegrass, Italian [9, 20] | Plant response rating, Pigweed [10, 19] | Plant response rating, Pigweed [10, 20] | Plant response rating, Morningglory [11, 19] | Plant response rating, Morningglory [11, 20] | Plant response rating, Waterhemp [12, 20] | Plant response rating, Ragweed [13, 19] | Plant response rating, Ragweed [13, 20] | Plant response rating, Ragweed [13, 21] | Johnsongrass plant response rating [14, 16] | Plant response rating, Johnsongrass [14, 19] | Plant response rating, Johnsongrass [14, 20] | Plant response rating, Johnsongrass [14, 21] | Johnsongrass plant response rating [14, 22] | Johnsongrass plant response rating [14, 23] | Corn plant response rating [15, 16] | Plant response rating, Corn [15, 19] | Plant response rating, Corn [15, 20] | Plant response rating, Corn [15, 21] | Corn plant response rating [15, 23]
98: Plant response rating, Lambsquarters [3, 18] | Plant response rating, Barnyardgrass [8, 18] | Plant response rating, Ragweed [13, 18]
25: Plant response rating, Ryegrass, Italian [9, 21] | Plant response rating, Morningglory [11, 21] | Plant response rating, Johnsongrass [14, 18]
80: Lambsquarters plant response rating [3, 23] | Ryegrass, Italian plant response rating [9, 22]
5: Plant response rating, Barnyardgrass [8, 20] | Plant response rating, Barnyardgrass [8, 21] | Barnyardgrass plant response rating [8, 22] | Ryegrass, Italian plant response rating [9, 16] | Ryegrass, Italian plant response rating [9, 23] | Ragweed plant response rating [13, 16] | Ragweed plant response rating [13, 22] | Plant response rating, Johnsongrass [14, 17] | Plant response rating, Corn [15, 17] | Plant response rating, Corn [15, 18] | Corn plant response rating [15, 22]
65: Plant response rating, Lambsquarters [3, 17] | Plant response rating, Crabgrass, Large [5, 17]
90: Plant response rating, Barnyardgrass [8, 17] | Barnyardgrass plant response rating [8, 23] | Morningglory plant response rating [11, 23] | Plant response rating, Waterhemp [12, 18] | Waterhemp plant response rating [12, 22]
